# Measured values: US9387202B2, “Pyridone amides and analogs exhibiting anti-cancer and anti-proliferative activities” (priority 2011, dated 2016)
# Experiments:
# MET (D1246N) Mutant = MET (D1246N) Mutant (Homo sapiens, UniProt P08581, D1228N); assay: Mutant MET kinase biochemical assay, D1246N; settings: for Fold potency decrease versus Example 1, MET (D1246N) Mutant: relative to Example 1 = 1; for Fold potency decrease versus Example 2, MET (D1246N) Mutant: relative to Example 2 = 1
# MET (Y1248C) Mutant = MET (Y1248C) Mutant (Homo sapiens, UniProt P08581, Y1230C); assay: Mutant MET kinase biochemical assay, Y1248C; settings: for Fold potency decrease versus Example 1, MET (Y1248C) Mutant: relative to Example 1 = 1; for Fold potency decrease versus Example 2, MET (Y1248C) Mutant: relative to Example 2 = 1
# Chain of MET (Y1248C) Mutant (P08581 25-1408 isoform P08581-2 Y1248C limits assumed): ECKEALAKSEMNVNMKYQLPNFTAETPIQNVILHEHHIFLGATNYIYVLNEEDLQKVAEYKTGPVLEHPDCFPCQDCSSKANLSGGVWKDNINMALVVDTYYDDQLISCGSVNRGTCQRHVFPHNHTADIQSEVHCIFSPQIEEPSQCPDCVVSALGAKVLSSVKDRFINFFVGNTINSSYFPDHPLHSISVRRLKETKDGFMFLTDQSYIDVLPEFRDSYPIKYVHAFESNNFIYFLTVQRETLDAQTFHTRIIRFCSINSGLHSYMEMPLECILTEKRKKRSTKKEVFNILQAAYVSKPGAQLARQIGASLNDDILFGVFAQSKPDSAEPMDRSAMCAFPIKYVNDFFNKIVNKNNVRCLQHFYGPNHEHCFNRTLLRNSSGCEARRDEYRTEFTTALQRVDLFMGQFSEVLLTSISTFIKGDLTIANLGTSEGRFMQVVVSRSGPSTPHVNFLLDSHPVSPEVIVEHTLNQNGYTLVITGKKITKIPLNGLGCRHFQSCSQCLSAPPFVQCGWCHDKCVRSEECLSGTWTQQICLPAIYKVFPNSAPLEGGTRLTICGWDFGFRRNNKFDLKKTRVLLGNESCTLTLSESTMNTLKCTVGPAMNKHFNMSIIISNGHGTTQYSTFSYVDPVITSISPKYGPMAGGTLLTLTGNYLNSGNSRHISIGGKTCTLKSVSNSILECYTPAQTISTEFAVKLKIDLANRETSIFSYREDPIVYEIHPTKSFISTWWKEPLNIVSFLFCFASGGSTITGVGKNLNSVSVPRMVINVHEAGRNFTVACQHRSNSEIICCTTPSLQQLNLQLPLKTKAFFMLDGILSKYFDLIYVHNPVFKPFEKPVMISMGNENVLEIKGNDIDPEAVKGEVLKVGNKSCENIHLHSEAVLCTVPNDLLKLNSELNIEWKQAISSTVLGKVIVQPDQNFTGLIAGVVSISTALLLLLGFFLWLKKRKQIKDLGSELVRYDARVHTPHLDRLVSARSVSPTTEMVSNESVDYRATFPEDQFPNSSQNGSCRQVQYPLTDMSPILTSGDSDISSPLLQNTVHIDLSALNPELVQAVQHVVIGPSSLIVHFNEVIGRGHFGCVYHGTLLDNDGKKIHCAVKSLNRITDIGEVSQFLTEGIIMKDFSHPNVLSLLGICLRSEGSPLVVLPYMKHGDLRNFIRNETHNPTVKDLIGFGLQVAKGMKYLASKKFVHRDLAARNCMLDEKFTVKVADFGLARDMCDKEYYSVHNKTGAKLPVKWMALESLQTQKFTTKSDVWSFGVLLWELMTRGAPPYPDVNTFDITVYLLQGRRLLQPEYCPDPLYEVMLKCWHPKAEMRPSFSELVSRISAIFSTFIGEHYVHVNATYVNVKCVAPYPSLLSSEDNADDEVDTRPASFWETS
# [1] = molecular target: T1, Phospho-MET in EBC-1 cells (Homo sapiens, UniProt P08581); assay: EBC-1 Phospho-MET ELISA; assay type: cell-based
# T1 construct: host or cells: EBC-1
# Procedure: EBC-1 cells (catalog #JCRB0820) were obtained from the Japan Health Science Research Resources Bank, Osaka, Japan. Briefly, cells were grown in DMEM supplemented with 10% characterized fetal bovine serum (Invitrogen, Carlsbad, Calif.) at 37° C., 5% CO2, 95% humidity. Cells were allowed to expand until reaching 70-95% confluency at which point they were subcultured or harvested for assay use.
# Fifteen thousand cells in DMEM supplemented with 0.5% characterized fetal bovine serum (FBS; Invitrogen, Carlsbad, Calif.) were added per well in a 96-well black clear bottom plate (Corning, Corning, N.Y.). Cells were then incubated overnight at 37 degrees Celsius, 5% CO2, 95% humidity. A serial dilution of test compound was dispensed into another 96-well black clear bottom plate (Corning, Corning, N.Y.) containing DMEM supplemented with 0.5% FBS. Diluted compound was then added to plates containing cells and incubated for 6 hours at 37 degrees Celsius, 5% CO2, 95% humidity. Cells were stimulated with 40 ng/mL HGF (R&D Systems, Minneapolis, Minn.) for 10 minutes, and then lysed. Phospho-MET in cell lysates was detected using the DuoSet IC Human Phospho-HGF R/c-MET ELISA (R&D Systems, Minneapolis, Minn.). Data was analyzed using Prism software (Graphpad, San Diego, Calif.) to calculate IC50 values.
# MET (D1246H) Mutant = MET (D1246H) Mutant (Homo sapiens, UniProt P08581, D1228H); assay: Mutant MET kinase biochemical assay, D1246H; settings: for Fold potency decrease versus Example 1, MET (D1246H) Mutant: relative to Example 1 = 1; for Fold potency decrease versus Example 2, MET (D1246H) Mutant: relative to Example 2 = 1
# Chain of MET (D1246H) Mutant (P08581 25-1408 isoform P08581-2 D1246H limits assumed): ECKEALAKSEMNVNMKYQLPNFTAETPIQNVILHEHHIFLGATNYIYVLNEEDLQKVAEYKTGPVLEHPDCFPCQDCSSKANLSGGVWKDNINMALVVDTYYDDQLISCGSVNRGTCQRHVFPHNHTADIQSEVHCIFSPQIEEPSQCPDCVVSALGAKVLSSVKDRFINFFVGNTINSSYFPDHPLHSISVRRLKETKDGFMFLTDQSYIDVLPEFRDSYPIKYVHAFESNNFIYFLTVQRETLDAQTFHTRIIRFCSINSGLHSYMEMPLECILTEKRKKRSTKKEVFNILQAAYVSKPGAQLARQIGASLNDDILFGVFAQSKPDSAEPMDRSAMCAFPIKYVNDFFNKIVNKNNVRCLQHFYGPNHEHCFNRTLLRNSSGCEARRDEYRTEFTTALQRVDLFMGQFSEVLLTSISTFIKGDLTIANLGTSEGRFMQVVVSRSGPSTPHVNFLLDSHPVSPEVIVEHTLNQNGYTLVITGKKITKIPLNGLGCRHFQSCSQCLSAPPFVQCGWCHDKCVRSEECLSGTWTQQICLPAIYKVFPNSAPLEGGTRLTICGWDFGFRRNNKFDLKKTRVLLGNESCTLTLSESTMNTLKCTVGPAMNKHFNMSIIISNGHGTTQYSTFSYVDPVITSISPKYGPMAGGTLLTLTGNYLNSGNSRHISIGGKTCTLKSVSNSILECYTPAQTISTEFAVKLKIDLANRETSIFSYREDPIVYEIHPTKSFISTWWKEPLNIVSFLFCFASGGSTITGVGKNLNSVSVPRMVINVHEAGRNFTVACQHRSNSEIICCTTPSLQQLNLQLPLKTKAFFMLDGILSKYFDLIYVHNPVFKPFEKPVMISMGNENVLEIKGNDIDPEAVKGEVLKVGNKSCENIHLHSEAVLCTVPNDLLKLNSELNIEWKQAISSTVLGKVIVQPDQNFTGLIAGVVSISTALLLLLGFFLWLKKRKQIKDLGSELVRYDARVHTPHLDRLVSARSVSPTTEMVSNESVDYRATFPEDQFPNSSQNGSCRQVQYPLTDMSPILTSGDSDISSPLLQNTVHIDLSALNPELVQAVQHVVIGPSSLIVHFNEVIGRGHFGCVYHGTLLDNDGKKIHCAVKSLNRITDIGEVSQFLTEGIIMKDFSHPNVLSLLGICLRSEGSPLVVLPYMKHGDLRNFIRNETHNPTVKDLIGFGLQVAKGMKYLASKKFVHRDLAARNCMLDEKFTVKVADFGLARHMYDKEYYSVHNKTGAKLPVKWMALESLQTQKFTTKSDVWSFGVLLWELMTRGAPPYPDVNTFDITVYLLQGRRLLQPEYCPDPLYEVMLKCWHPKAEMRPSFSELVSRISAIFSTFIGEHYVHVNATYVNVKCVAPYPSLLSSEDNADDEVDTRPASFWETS
# [2] = molecular target: T2, c-MET kinase (Seq. ID No. 2), cMET WT (Homo sapiens, UniProt P08581); assay: c-MET kinase assay (WT MET biochemical assay); settings: for Fold potency decrease versus Example 1, cMET WT: relative to Example 1 = 1; for Fold potency decrease versus Example 2, cMET WT: relative to Example 2 = 1
# T2 construct: c-MET (c-MET residues: 956-1390, from Invitrogen, catalogue #PV3143, 6 nM); purchased Invitrogen PV3143
# T2 sequence (P08581 with tags, fused parts or gaps): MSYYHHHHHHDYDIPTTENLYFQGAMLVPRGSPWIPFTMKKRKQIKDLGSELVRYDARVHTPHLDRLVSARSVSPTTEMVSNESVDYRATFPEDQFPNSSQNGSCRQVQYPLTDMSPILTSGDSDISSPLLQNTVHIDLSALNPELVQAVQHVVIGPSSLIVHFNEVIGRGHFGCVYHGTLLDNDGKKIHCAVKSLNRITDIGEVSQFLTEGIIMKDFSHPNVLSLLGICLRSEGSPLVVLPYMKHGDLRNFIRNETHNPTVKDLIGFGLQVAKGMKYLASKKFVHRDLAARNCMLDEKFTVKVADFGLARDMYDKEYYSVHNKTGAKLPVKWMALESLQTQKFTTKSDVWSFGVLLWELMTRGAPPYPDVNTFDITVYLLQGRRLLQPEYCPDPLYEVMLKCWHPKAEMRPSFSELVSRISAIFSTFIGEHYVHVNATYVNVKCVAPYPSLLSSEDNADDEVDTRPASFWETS
# Procedure: Activity of c-MET kinase (Seq. ID No. 2) was determined by following the production of ADP from the kinase reaction through coupling with the pyruvate kinase/lactate dehydrogenase system (e.g., Schindler et al. Science 2000, 289, pp. 1938-1942). In this assay, the oxidation of NADH (thus the decrease at A340 nm) was continuously monitored spectrophotometrically. The reaction mixture (100 μl) contained c-MET (c-MET residues: 956-1390, from Invitrogen, catalogue #PV3143, 6 nM), polyE4Y (1 mg/mL), MgCl2 (10 mM), pyruvate kinase (4 units), lactate dehydrogenase (0.7 units), phosphoenol pyruvate (1 mM), and NADH (0.28 mM) in 90 mM Tris buffer containing 0.25 mM DTT, 0.2% octyl-glucoside and 1% DMSO, pH 7.5. Test compounds were incubated with c-MET (Seq. ID No. 2) and other reaction reagents at 22° C. for 0.5 h before ATP (100 μM) was added to start the reaction. The absorption at 340 nm was monitored continuously for 2 hours at 30° C. on Polarstar Optima plate reader (BMG). The reaction rate was calculated using the 1.0 to 2.0 h time frame. Percent inhibition was obtained by comparison of reaction rate with that of a control (i.e., with no test compound). IC50 values were calculated from a series of percent inhibition values determined at a range of inhibitor concentrations using software routines as implemented in the GraphPad Prism software package.
# [3] = molecular target: T3, Phospho-MET in MKN-45 cells (Homo sapiens, UniProt P08581); assay: MKN-45 Phospho-MET ELISA; assay type: cell-based
# T3 construct: host or cells: MKN-45
# Procedure: MKN-45 cells (catalog #JCRB0254) were obtained from the Japan Health Science Research Resources Bank, Osaka, Japan. Briefly, cells were grown in RPMI 1640 media supplemented with 10% characterized fetal bovine serum (Invitrogen, Carlsbad, Calif.) at 37° C., 5% CO2, 95% humidity. Cells were allowed to expand until reaching 70-95% confluency at which point they were subcultured or harvested for assay use.
# Twenty-five thousand cells in RPMI-1640 supplemented with 10% characterized fetal bovine serum (Invitrogen, Carlsbad, Calif.) were added per well in a 96-well black clear bottom plate (Corning, Corning, N.Y.). Cells were then incubated overnight at 37 degrees Celsius, 5% CO2, 95% humidity. Media was then aspirated and cells were washed with PBS. A serial dilution of test compound was dispensed into another 96-well black clear bottom plate (Corning, Corning, N.Y.) containing serum-free RPMI-1640. Compound was added to plates containing cells and incubated for 6 hours at 37 degrees Celsius, 5% CO2, 95% humidity. Cells were stimulated with 40 ng/mL HGF (R&D Systems, Minneapolis, Minn.) for 10 minutes, and then lysed. Phospho-MET in cell lysates was detected using the DuoSet IC Human Phospho-HGF R/c-MET ELISA (R&D Systems, Minneapolis, Minn.). Data was analyzed using Prism software (Graphpad, San Diego, Calif.) to calculate IC50 values.
# A549 cells = assay: A549 HGF-stimulated MET-dependent cell migration assay; assay type: cell-based
# [4] = tested on: oncogenic Mutant MET kinase; assay: various oncogenic Mutant MET kinase biochemical assays (summarised); settings: range over columns 3-6; for Fold less potent than Example 1 in the various oncogenic Mutant MET kinase biochemical assays: relative to Example 1; for Fold less potent than Example 2 in the various oncogenic Mutant MET kinase biochemical assays: relative to Example 2
# MET (Y1248H) Mutant = MET (Y1248H) Mutant (Homo sapiens, UniProt P08581, Y1230H); assay: Mutant MET kinase biochemical assay, Y1248H; settings: for Fold potency decrease versus Example 1, MET (Y1248H) Mutant: relative to Example 1 = 1; for Fold potency decrease versus Example 2, MET (Y1248H) Mutant: relative to Example 2 = 1
# [5] = relative to Example 1 = 1, listed as the '229 Compound
# [6] = relative to Example 2 = 1, listed as the '229 Compound
# Chain of MET (D1246N) Mutant (P08581 25-1408 isoform P08581-2 D1246N limits assumed): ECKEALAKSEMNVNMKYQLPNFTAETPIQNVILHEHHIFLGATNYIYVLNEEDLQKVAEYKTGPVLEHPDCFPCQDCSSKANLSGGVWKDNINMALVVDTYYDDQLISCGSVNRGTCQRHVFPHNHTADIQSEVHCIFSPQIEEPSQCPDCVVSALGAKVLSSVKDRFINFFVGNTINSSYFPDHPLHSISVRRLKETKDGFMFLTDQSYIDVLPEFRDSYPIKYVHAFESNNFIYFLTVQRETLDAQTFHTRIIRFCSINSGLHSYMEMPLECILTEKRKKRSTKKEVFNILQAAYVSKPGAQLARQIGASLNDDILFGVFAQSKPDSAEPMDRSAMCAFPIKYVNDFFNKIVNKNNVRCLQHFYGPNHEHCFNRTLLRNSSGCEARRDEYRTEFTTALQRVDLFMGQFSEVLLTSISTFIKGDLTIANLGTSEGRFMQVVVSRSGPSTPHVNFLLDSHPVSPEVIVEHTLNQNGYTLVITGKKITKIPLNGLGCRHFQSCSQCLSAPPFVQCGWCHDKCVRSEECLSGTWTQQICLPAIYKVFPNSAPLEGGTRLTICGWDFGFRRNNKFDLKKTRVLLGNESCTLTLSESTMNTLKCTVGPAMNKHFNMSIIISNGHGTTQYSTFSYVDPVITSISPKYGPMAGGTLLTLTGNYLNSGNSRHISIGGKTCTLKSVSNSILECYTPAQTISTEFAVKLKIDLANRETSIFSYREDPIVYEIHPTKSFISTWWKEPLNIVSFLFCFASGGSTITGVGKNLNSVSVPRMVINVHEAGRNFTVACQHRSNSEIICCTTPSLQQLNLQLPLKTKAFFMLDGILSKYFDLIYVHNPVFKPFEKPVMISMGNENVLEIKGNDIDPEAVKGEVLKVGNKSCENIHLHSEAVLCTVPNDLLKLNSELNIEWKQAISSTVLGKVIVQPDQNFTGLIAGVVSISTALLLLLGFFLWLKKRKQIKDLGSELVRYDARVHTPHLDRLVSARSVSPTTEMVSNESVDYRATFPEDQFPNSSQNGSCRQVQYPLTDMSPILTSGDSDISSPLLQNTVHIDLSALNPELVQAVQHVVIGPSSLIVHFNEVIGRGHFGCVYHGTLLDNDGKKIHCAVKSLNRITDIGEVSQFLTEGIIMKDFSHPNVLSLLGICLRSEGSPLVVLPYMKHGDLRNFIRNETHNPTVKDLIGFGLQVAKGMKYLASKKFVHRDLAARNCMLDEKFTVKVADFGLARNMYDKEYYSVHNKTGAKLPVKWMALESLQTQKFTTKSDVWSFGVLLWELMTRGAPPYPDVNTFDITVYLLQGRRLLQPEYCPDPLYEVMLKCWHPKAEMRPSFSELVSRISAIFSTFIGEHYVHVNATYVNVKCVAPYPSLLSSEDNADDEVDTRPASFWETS
SMILES,"Fold potency decrease versus Example 1, MET (D1246N) Mutant (MET (D1246N) Mutant)","Fold potency decrease versus Example 2, MET (D1246N) Mutant (MET (D1246N) Mutant)","Fold potency decrease versus Example 1, MET (Y1248C) Mutant (MET (Y1248C) Mutant)","Fold potency decrease versus Example 2, MET (Y1248C) Mutant (MET (Y1248C) Mutant)","Fold potency decrease versus Example 1, EBC-1 p-MET ([1]; relative to Example 1 = 1)","Fold potency decrease versus Example 2, EBC-1 p-MET ([1]; relative to Example 2 = 1)","Fold potency decrease versus Example 1, MET (D1246H) Mutant (MET (D1246H) Mutant)","Fold potency decrease versus Example 2, MET (D1246H) Mutant (MET (D1246H) Mutant)","Fold potency decrease versus Example 1, cMET WT [2]","Fold potency decrease versus Example 2, cMET WT [2]","Fold potency decrease versus Example 1, MKN-45 p-MET ([3]; relative to Example 1 = 1)","Fold potency decrease versus Example 2, MKN-45 p-MET ([3]; relative to Example 2 = 1)","Fold potency decrease versus Example 1, A549 MIG (A549 cells; relative to Example 1 = 1)","Fold potency decrease versus Example 2, A549 MIG (A549 cells; relative to Example 2 = 1)",Fold less potent than Example 1 in the various oncogenic Mutant MET kinase biochemical assays [4],Fold less potent than Example 2 in the various oncogenic Mutant MET kinase biochemical assays [4],"Fold potency decrease versus Example 1, MET (Y1248H) Mutant (MET (Y1248H) Mutant)","Fold potency decrease versus Example 2, MET (Y1248H) Mutant (MET (Y1248H) Mutant)",other results
"CCOc1ccn(-c2ccc(F)cc2)c(=O)c1C(=O)Nc1cc(F)c(Oc2ccnc(N)c2)cc1F [Compound A, N-(4-((2-aminopyridin-4-yl)oxy)-2,5-difluorophenyl)-4-ethoxy-1-(4-fluorophenyl)-2-oxo-1,2-dihydropyridine-3-carboxamide]",4.4×,5.7×,6×,5.7×,11.7 ×,21.5 ×,6.7×,4×,2.4 ×,2.7 ×,18.8 ×,18.8 ×,3.4 ×,8.9 ×,2.6-6.7 ×,4-18.3 ×,2.6×,18.3×,
"CCOc1ccn(-c2ccc(F)cc2)c(=O)c1C(=O)Nc1cc(F)c(Oc2ccnc(NC(C)=O)c2)cc1F [Example 1, N-(4-((2-acetamidopyridin-4-yl)oxy)-2,5-difluorophenyl)-4-ethoxy-1-(4-fluorophenyl)-2-oxo-1,2-dihydropyridine-3-carboxamide]",1 ×,,1 ×,,1 ×,,1 ×,,1 ×,,1 ×,,1 ×,,,,1 ×,,
"CCOc1ccn(-c2ccc(F)cc2)c(=O)c1C(=O)Nc1cc(F)c(Oc2ccnc(NC(=O)CC)c2)cc1F [Example 2, N-(2,5-difluoro-4-((2-propionamidopyridin-4-yl)oxy)phenyl)-4-ethoxy-1-(4-fluorophenyl)-2-oxo-1,2-dihydropyridine-3-carboxamide]",,1 ×,,1 ×,,1 ×,,1 ×,,1 ×,,1 ×,,1 ×,,,,1 ×,
CCOc1ccn(-c2ccc(F)cc2)c(=O)c1C(=O)Nc1ccc(Oc2ccnc(N)c2Cl)c(F)c1 [The ′229 Compound],2×,2.5×,3.8×,3.6×,22.5×,41.5×,8.5×,5.1×,3.9×,4.4×,73.8×,73.7×,2.4×,6.3×,2.3-8.5 ×,2.5-15.7 ×,2.3×,15.7×,"Fold potency decrease versus Example 1, EBC-1 p-MET [1, 5]: 22.5 ×; Fold potency decrease versus Example 2, EBC-1 p-MET [1, 6]: 41.5 ×; Fold potency decrease versus Example 1, cMET WT ([2]; listed as the '229 Compound): 3.9 ×; Fold potency decrease versus Example 2, cMET WT ([2]; listed as the '229 Compound): 4.4 ×; Fold potency decrease versus Example 1, MKN-45 p-MET [3, 5]: 73.8 ×; Fold potency decrease versus Example 2, MKN-45 p-MET [3, 6]: 73.7 ×; Fold potency decrease versus Example 1, A549 MIG (A549 cells; [5]): 2.4 ×; Fold potency decrease versus Example 2, A549 MIG (A549 cells; [6]): 6.3 ×"
